Experimental data reported in US12011475B2, “Polypeptide, polypeptide fragment, derivative thereof, and applications thereof” (CHENGDU HUITAI BIOMEDICINE CO., LTD., priority 2017, dated 2024).
Square brackets hold non-standard residues; d marks the D form. Primed or numbered codes have the meaning given here. Ends that are not written are not given here. PEG2′ = not defined here

Assays:
[1] = system: rat with pulmonary fibrosis induced by bleomycin; experiment: HE staining and alveolitis score of rat lung tissue (Example 4); format: in vivo; conditions: 2.5 mg/kg peptide + 3 mg/kg bleomycin intratracheal; for inflammatory pathology score (degree of alveolitis, grade 0 to 3): vs BLM group, p<0.01, FIG. 3; for pathological changes in lung tissue (HE staining): vs model group, FIG. 2
Description: (§1) The rats were weighed before administration, intramuscularly injected with 65 mg/kg Zoletil anesthetic solution. After the rats entered the stage III anesthesia, the experimental rats were fixated in the lateral decubitus. Gavage needle size 12 was inserted into rat trachea through oral cavity along the glottis to instill with drug. The experimental animals were fed normally from the 1st day to the 7th day after intratracheal administration, and were weighed every day with feed and water ad libitum.
(§2) The rats in blank control group were received no treatment after anesthesia; the rats in model group (bleomycin) were intratracheally instilled with bleomycin (3 mg/kg); the rats in PBS control group were intratracheally instilled with an equal volume of sterile PBS buffer (0.01 M, pH=9.5); the rats in polypeptide control group were intratracheally instilled with 2.5 mg/kg of the polypeptide N2 (the solvent was 0.01 M, pH=9.5 PBS buffer); the rats in N2 treatment group were intratracheally instilled with 2.5 mg/kg of the polypeptide N2 and 3 mg/kg of bleomycin simultaneously, the rats in N3 treatment group were intratracheally instilled with 2.5 mg/kg of the polypeptide N3 and 3 mg/kg of bleomycin simultaneously.
The lung tissue of the rats of Example 2 was taken, fixed with 4% paraformaldehyde and embedded in paraffin. The wax block embedded the lung tissue was sectioned along the largest cross section. Pathological changes in lung tissue were observed using hematoxylin-eosin (HE) staining. Pathological changes in lung tissue were observed under a light microscope (low magnification) at a magnification of 100 times (the result is shown in FIG. 2).
According to the method provided by Szapie, et al., the degree of alveolitis was graded according to the range of lesions and could be divided into 0 to 3 grades, corresponding to 0 to 3 points. The evaluation indexes for the degree of alveolitis are as follows: grade 0, no alveolitis; grade 1, mild alveolitis, manifested as a slight increase in alveolar septum, infiltration of monocytes, near the pleura or localized, with a lesion range of less than 20% without alveolar structural damage; grade 2, moderate alveolitis, the lesion ranges from 20% to 50%, relatively severe near the pleura; grade 3, severe alveolitis, diffusely distributed, the lesion range is more than 50%, with pulmonary parenchymal lesion occasionally.

[2] = system: rat with pulmonary fibrosis induced by bleomycin; experiment: Hydroxyproline content in lung tissue homogenate, alkali hydrolysis kit (Example 7); format: in vivo; conditions: vs bleomycin group; 2.5 mg/kg peptide intratracheal; p<0.05; FIG. 7
Description: as §1, with “libitum. […]” for “libitum.”
The rats of Example 2 were taken, and the hydroxyproline content in lung tissue homogenate was detected using Boster Hydroxyproline Alkali Hydrolysis Assay Kit (Cat. No. A030) (the result is shown in FIG. 7).

[3] = system: rat with pulmonary fibrosis induced by bleomycin; experiment: Lung coefficient, bleomycin rat model (Examples 2-3); format: in vivo; conditions: vs bleomycin group; 2.5 mg/kg peptide + 3 mg/kg bleomycin intratracheal, simultaneously; p<0.05; FIG. 1
Description: as §1, with “libitum. […]” for “libitum.”
The rats in Example 2 were weighed and sacrificed by anesthesia overdose. […] After the wet weight of the whole lung was weighted by the electronic balance, the lung coefficient was calculated according to the formula, lung coefficient=lung mass (mg)/body weight (g) (the result is shown in FIG. 1).

[4] = system: TGF-β/Smad signaling pathway; experiment: Western blot of Smad protein in lung tissue homogenate (Example 8); format: in vivo, rat; conditions: vs bleomycin group, 2.5 mg/kg peptide intratracheal; for levels of p-Smad2 and p-Smad3 proteins (grayscale value): p<0.05, FIG. 9; for intensities of the expression bands of p-Smad2 and p-Smad3 in lung tissue: GAPDH internal reference, FIG. 8
Description: as §1, §2
(§3) The rat lung tissue of Example 2 was taken, and the tissue was homogenized using RIPA lysate (100 mg of lung tissue corresponding to 1 mL of lysate), centrifuged and the supernatant was taken, and then the protein concentration was determined by BCA method. Equal amounts of protein samples were taken and Western blot experiment was performed using anti-GAPDH, anti-p-Smad2 and anti-p-Smad3 antibodies (the result is shown in FIG. 8).
The grayscale value of each band was detected and analyzed using Image pro plus 6.0 image analysis software (the result is shown in FIG. 9). […] The detection of grayscale value supported the above-mentioned description.

[5] = system: rat with pulmonary fibrosis induced by bleomycin; experiment: Inflammatory cells in bronchoalveolar lavage fluid, Wright-Giemsa staining (Example 5); format: in vivo; conditions: vs bleomycin group; 2.5 mg/kg peptide + 3 mg/kg bleomycin intratracheal; p<0.05; FIG. 4
Description: as §1, with “libitum. […]” for “libitum.”
Bronchoalveolar lavage fluid was collected, and […] by centrifugation. […] The counting method was: the number of macrophages, lymphocytes, and neutrophils was calculated according to the total number of inflammatory cells based on the respective proportion of macrophages, lymphocytes, and neutrophils in 100 intact cells (the result is shown in FIG. 4).

[6] = system: Fibronectin, Collagen I and Collagen III; experiment: Western blot of extracellular matrix protein in lung tissue homogenate (Example 6); format: in vivo, rat; conditions: vs bleomycin group, 2.5 mg/kg peptide intratracheal; for levels of Fibronectin, Collagen I and Collagen III proteins (grayscale value): p<0.05, FIG. 6; for intensities of the expression bands of Fibronectin, Collagen I and Collagen III in lung tissue: GAPDH internal reference, FIG. 5
Description: as §1, §2
as §3, with “and” for “and the tissue was”, “anti-Fibronectin, anti-Collagen I” for “anti-p-Smad2”, “anti-Collagen III” for “anti-p-Smad3”, “5).” for “8).”
The grayscale value of each band was detected and analyzed using Image pro plus 6.0 image analysis software (the result is shown in FIG. 6). […] The detection of grayscale value supported the above-mentioned description.

[7] = system: active TGF-β; experiment: Active TGF-β in lung tissue by ELISA (Examples 9-10); format: in vivo, rat; conditions: vs model group; 6 mg/kg peptide + 3 mg/kg bleomycin intratracheal; p<0.05; FIG. 10
Description: (§4) The rats were weighed before administration, intramuscular injection of Zoletil anesthetic solution, the dose was 65 mg/kg. After the rats entered the stage III anesthesia, the experimental rats were bond in the incline lateral decubitus. A size 12 gavage needle was inserted into rat trachea through oral cavity along the glottis to infuse the drug. The experimental animals were fed normally from the 1st day to the 14th day after intratracheal administration, and were weighed regularly every day without restriction of feed or drinking water. […]
The rat lung tissue in the model group, the control group and the N4 treatment group of Example 9 was taken, and homogenized using RIPA lysate (100 mg of lung tissue corresponding to 1 mL of lysate), centrifuged and the supernatant was taken, and then the protein concentration was determined by BCA method. Equal amounts of protein samples were taken and the active TGF-β content was measured by enzyme-linked immunosorbent assay ELISA (Promega, Cat. No. G7591) (the result is shown in FIG. 10), and one-way ANOVA was used for biostatistical analysis.

[8] = system: rat with pulmonary fibrosis induced by bleomycin; experiment: Hydroxyproline content in lung tissue homogenate, acid hydrolysis (Example 12); format: in vivo; conditions: vs model group; 6 mg/kg peptide + 3 mg/kg bleomycin intratracheal; p<0.05; FIG. 12
Description: The rats were weighed before administration, intramuscular injection of Zoletil anesthetic solution, the dose was 65 mg/kg. After the rats entered the stage III anesthesia, the experimental rats were bond in the incline lateral decubitus. A size 12 gavage needle was inserted into rat trachea through oral cavity along the glottis to infuse the drug. The experimental animals were fed normally from the 1st day to the 14th day after intratracheal administration, and were weighed regularly every day without restriction of feed or drinking water.
The rats in model group were intratracheally instilled with bleomycin (3 mg/kg); the rats in control group were intratracheally instilled with an equal volume of saline; the rats in treatment groups were intratracheally instilled with bleomycin (3 mg/kg) and corresponding therapeutic drug (6 mg/kg) simultaneously.
The lung tissue in the model group, the control group and the N4 treatment group of Example 9 was taken, and the hydroxyproline content in the lung tissue homogenate was detected using BioVision Hydroxyproline Acid Hydrolysis Assay Kit (Cat. No. K555-100) (the result is shown in FIG. 12), and one-way ANOVA was used for biostatistical analysis.

[9] = system: TGF-β signaling pathway; experiment: ctgf, Collagen I and Collagen III in lung tissue by RT-qPCR (Example 11); format: in vivo, rat; conditions: vs model group; 6 mg/kg peptide + 3 mg/kg bleomycin intratracheal; 18S RNA reference; p<0.05; FIG. 11
Description: as §4
The rat lung tissue in the model group, the control group and the N4 treatment group of Example 9 was taken. […] After obtaining cDNA using reverse transcription, fluorescence quantitative PCR (qPCR) kit (Applied Biosystems, Cat. No. 4319413E) was used to detect the expression levels of connective tissue growth factor ctgf (forward primer: 5′-[…]-3′, reverse primer: 5′-[…]-3′) downstream of the TGF-β pathway, Collagen I (forward primer: 5′-TGCCGATGTCGCTATCCA-3′, reverse primer: 5′-[…]-3′) and Collagen III (forward primer: 5′-[…]-3′, reverse primer: 5′-[…]-3′). […]

Substance: (PEG2)TyrArgValArgPheLeuAlaLysGluAsnValThrGlnAspAlaGluAsp ([PEG2′]YRVRFLAKENVTQDAED; listed as Homo sapiens) [N3]
- inflammatory pathology score (degree of alveolitis, grade 0 to 3) [1]: significant alleviation
- pathological changes in lung tissue (HE staining) [1]: a small amount of inflammatory cell infiltration in the interstitial
- hydroxyproline content in lung tissue [2]: decreased significantly
- lung coefficients of the left lung, the right lung and the whole lung [3]: decreased significantly
- levels of p-Smad2 and p-Smad3 proteins (grayscale value) [4]: decreased significantly
- intensities of the expression bands of p-Smad2 and p-Smad3 in lung tissue [4]: almost returned to the level of the control group
- number of macrophages, heteromorphic nuclear cells and lymphocytes in bronchoalveolar lavage fluid [5]: decreased significantly
- levels of Fibronectin, Collagen I and Collagen III proteins (grayscale value) [6]: decreased significantly
- intensities of the expression bands of Fibronectin, Collagen I and Collagen III in lung tissue [6]: almost returned to the level of the control group

Substance: RFLAKENVTQD [N4]
- content of active TGF-β in the lung tissue [7]: decreased significantly
- hydroxyproline content in lung tissue [8]: decreased significantly
- gene expression levels of ctgf, collagen I and collagen III in lung tissue [9]: decreased significantly

Substance: YRVRFLAKENVTQDAED [N2]
- inflammatory pathology score (degree of alveolitis, grade 0 to 3) [1]: significant alleviation
- pathological changes in lung tissue (HE staining) [1]: a small amount of inflammatory cell infiltration in the interstitial
- hydroxyproline content in lung tissue [2]: decreased significantly
- lung coefficients of the left lung, the right lung and the whole lung [3]: decreased significantly
- levels of p-Smad2 and p-Smad3 proteins (grayscale value) [4]: decreased significantly
- intensities of the expression bands of p-Smad2 and p-Smad3 in lung tissue [4]: almost returned to the level of the control group
- number of macrophages, heteromorphic nuclear cells and lymphocytes in bronchoalveolar lavage fluid [5]: decreased significantly
- levels of Fibronectin, Collagen I and Collagen III proteins (grayscale value) [6]: decreased significantly
- intensities of the expression bands of Fibronectin, Collagen I and Collagen III in lung tissue [6]: almost returned to the level of the control group
